Test results published in the supplement of paper PMC10307832.

Assays:
Assay in all cases: relative viability (nuclei count vs DMSO), 5 days (fraction); higher = more cells survive
[1] = compound: C1/C(=C\C2=CC=CS2)/C(=O)/C(=C/C3=CC=CS3)/C1 + C[C@]1(O)C[C@@H](c2nc(-c3ccc4ccc(-c5ccccc5)nc4c3)c3c(N)nccn32)C1 [Linsitinib] (partner 1 µM)
In short: (§1)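 After 5 days of treatment, lung cancer cells in 1536-well plates were fixed and stained in a single step (final 0.05% Triton X-100, 1% formaldehyde, 1 ug/ml Hoechst) and their nuclei counted on 4× images. Treatment had been applied by pin tool the day after seeding as one drug alone or as a fixed anchor-drug dose with five library-drug doses (not always all listed) in √10 steps. Relative viability is the nuclei count of treated wells divided by that of vehicle wells, and values are medians of duplicate plates.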

[2] = compound: C1=CC(=CC=C1C2=CC(=C(S2)NC(=O)N)C(=O)N)F [TPCA-1] + Nc1ncn([C@H]2C[C@H](O)[C@@H](CO)O2)c(=O)n1 [Decitabine] (partner 2 µM)
In short: as §1

[3] = compound: C1=CC(=CC=C1C2=CC(=C(S2)NC(=O)N)C(=O)N)F [TPCA-1] + COc1cc2c(Oc3ccc(NC(=O)C4(C(=O)Nc5ccc(F)cc5)CC4)cc3F)ccnc2cc1OCCCN1CCOCC1 [Foretinib] (partner 0.25 µM)
In short: as §1

[4] = compound: C[C@]12O[C@H](C[C@]1(O)CO)n1c3ccccc3c3c4c(c5c6ccccc6n2c5c31)CNC4=O [Lestaurtinib] + Cc1nc(NC(=O)N2CCC[C@H]2C(N)=O)sc1-c1ccnc(C(C)(C)C(F)(F)F)c1 [Alpelisib] (partner 2 µM)
In short: as §1

| Cell Line | relative viability ([1]; first compound 0.2 µM) | relative viability ([1]; first compound 0.6325 µM) | relative viability ([1]; first compound 2 µM) | relative viability ([1]; first compound 6.325 µM) | relative viability ([1]; first compound 20 µM) | relative viability ([2]; first compound 0.04 µM) | relative viability ([2]; first compound 0.1265 µM) | relative viability ([2]; first compound 0.4 µM) | relative viability ([2]; first compound 1.265 µM) | relative viability ([2]; first compound 4 µM) | relative viability ([3]; first compound 0.04 µM) | relative viability ([3]; first compound 0.1265 µM) | relative viability ([3]; first compound 0.4 µM) | relative viability ([3]; first compound 1.265 µM) | relative viability ([3]; first compound 4 µM) | relative viability ([4]; first compound 0.005 µM) | relative viability ([4]; first compound 0.01581 µM) | relative viability ([4]; first compound 0.05 µM) | relative viability ([4]; first compound 0.1581 µM) | relative viability ([4]; first compound 0.5 µM) |
| --- | --- | --- | --- | --- | --- | --- | --- | --- | --- | --- | --- | --- | --- | --- | --- | --- | --- | --- | --- | --- |
| NCI-H1437 | 1.1 | 1.04 | 0.993 | 0.984 | 0.986 | 0.601 | 0.566 | 0.572 | 0.566 | 0.669 | 1.31 | 1.4 | 1.25 | 1.32 | 1.41 | 0.958 | 1.11 | 1.01 | 0.757 | 0.461 |
| NCI-H838 | 1.12 | 0.979 | 0.955 | 0.8 | 0.94 | 0.466 | 0.442 | 0.532 | 0.44 | 0.44 | 1.06 | 0.99 | 0.918 | 0.843 | 0.769 | 1.06 | 1.05 | 0.9 | 0.576 | 0.183 |
| NCI-H1666 | 0.828 | 0.762 | 0.776 | 0.481 | 0.825 | 0.711 | 0.607 | 0.743 | 0.695 | 0.707 | 0.961 | 0.942 | 0.931 | 0.962 | 0.997 | 0.915 | 1.05 | 1.02 | 0.493 | 0.442 |
| NCI-H1944 | 1.32 | 1.09 | 1.23 | 1.17 | 1.01 | 0.526 | 0.446 | 0.477 | 0.475 | 0.383 | 1.04 | 0.821 | 0.869 | 0.847 | 0.488 | 0.82 | 0.745 | 0.61 | 0.41 | 0.383 |
| NCI-H2023 | 0.794 | 0.684 | 0.668 | 0.731 | 0.679 | 0.256 | 0.195 | 0.228 | 0.227 | 0.182 | 0.88 | 0.86 | 0.874 | 0.797 | 0.658 | 0.674 | 0.616 | 0.536 | 0.488 | 0.384 |
| NCI-H1755 | 1.06 | 1.07 | 1.04 | 0.818 | 0.939 | 0.649 | 0.709 | 0.709 | 0.688 | 0.67 | 0.914 | 0.895 | 0.923 | 0.832 | 0.669 | 1 | 0.927 | 0.571 | 0.349 | 0.202 |
| NCI-H23 | 0.584 | 0.51 | 0.67 | 0.437 | 0.643 | 0.319 | 0.277 | 0.289 | 0.317 | 0.262 | 0.947 | 0.934 | 0.935 | 1.08 | 0.867 | 0.666 | 0.552 | 0.571 | 0.565 | 0.236 |
| ABC-1 | 0.931 | 0.879 | 0.882 | 0.671 | 0.802 | 1.49 | 1.07 | 1.16 | 1.09 | 1.27 | 1.28 | 1.11 | 1.27 | 0.964 | 0.778 | 1.06 | 1.02 | 0.845 | 0.658 | 0.262 |
